Assay results published in patent US20150031641A1, “METHODS AND COMPOSITIONS FOR THE DIAGNOSIS, PROGNOSIS AND TREATMENT OF ACUTE MYELOID LEUKEMIA” (MEMORIAL SLOAN-KETTERING CANCER CENTER, priority 2012, published 2015).

System: patients with AML
Test: ECOG E1900 trial: overall survival after induction with high-dose vs standard-dose daunorubicin plus cytarabine, by genotype
Type: in vivo, human
Conditions: for outcome with dose-intensified induction therapy: univariate analysis
Description: The present disclosure is based on mutational analysis of 18 genes in 398 patients with AML younger than 60 years of age randomized to receive induction therapy including high-dose or standard dose daunorubicin. Prognostic findings were further validated in an independent set of 104 patients.
Mutational analysis was performed on diagnostic patient samples from the ECOG E1900 trial in the test (n=398) and validation (n=104) cohorts. The test cohort comprised of all E1900 patients for whom viably frozen cells were available for DNA extraction and mutational profiling. The validation cohort comprised of a second set of patients for whom samples were banked in Trizol, which was used to extract DNA for mutational studies.
Clinical characteristics of the patients studied compared to the complete E1900 trial cohort are in Table 1. The median follow-up time of patients included for analysis was 47.4 months from induction randomization. Cytogenetic analysis, fluorescent in situ hybridization, and RT-PCR for recurrent cytogenetic lesions was performed as described initially by Slovak et al. and utilized previously with central review by the ECOG Cytogenetics Committee (see ref. 16 and 17).
Survival time was measured from date of randomization to date of death for those who died and date of last follow-up for those who were alive at the time of analysis. Survival probabilities were estimated using the Kaplan-Meier method and compared across mutant and wild-type patients using the log-rank test. Multivariate analyses were conducted using the Cox model with forward selection. Proportional hazards assumption was checked by testing for a non-zero slope in a regression of the scaled Schoenfeld residuals on functions of time (Table 3).
When necessary, such as the analyses performed in various subsets, results of the univariate analyses were used to select the variables to be included in the forward variable search. Final multivariate models informed the development of novel risk classification rules. When indicated, p-values were adjusted to control the family wise error rate (FWER) using the complete null distribution approximated by resampling obtained through PROC MULTTEST in SAS or the multtest library in R^19. These adjustements were performed to adjust for the probability of making one or more false discoveries given that multiple pairwise tests were being performed. The only exception is adjustment for tests regarding effect of mutations on response to induction dose where a step-down Holm procedure was used to correct for multiple testing. All analyses were performed using SAS 9.2 (www.sas.com) and R 2.12 (www.r-project.org).
Mutual exclusivitity of pairs of mutations were evaluated by fourfold contingency tables and Fisher's exact test. The association between mutations and cytogenetic risk classification was tested using the chi-square test. Hierarchical clustering was performed using the Lance-Williams dissimilarity formula and complete linkage. Survival time was measured from date of randomization to date of death for those who died and date of last follow-up for those who were alive at the time of analysis. Survival probabilities were estimated using the Kaplan-Meier method and compared across mutant and wildtype patients using the log-rank test. Multivariate analyses were conducted using the Cox model. Proportional hazards assumption was checked by testing for a non-zero slope in a regression of the scaled Schoenfeld residuals on functions of time. […]

SMILES: COc1cccc2c1C(=O)c1c(O)c3c(c(O)c1C2=O)C[C@@](O)(C(C)=O)C[C@@H]3O[C@H]1C[C@H](N)[C@H](O)[C@H](C)O1 [daunorubicin]
- outcome with dose-intensified induction therapy (AML patients with MLL translocations): improved outcome
- outcome with dose-intensified induction therapy (AML patients with NPM1 mutations): improved outcome
- survival with high-dose daunorubicin according to treatment arm (DNMT3A mutant patients): associated with improved survival
- impact of DNMT3A mutational status on the outcome with dose-intensive chemotherapy (patients receiving high-dose or standard-dose daunorubicin, FIG. 4B): significant impact
- overall survival, high-dose relative to standard dose daunorubicin (patients with DNMT3A or NPM1 mutations or MLL translocations, cytarabine plus 90 vs 45 mg/m^2 daunorubicin induction): improved survival
